Source: ChEMBL document CHEMBL5214900, “Design, Synthesis, and Biological Evaluation of Membrane-Active Bakuchiol Derivatives as Effective Broad-Spectrum Antibacterial Agents” (J Med Chem, 2021)
Values after ≈ are worked out from the molar mass of the structure shown.

Legend:
Staphylococcus aureus [1] = test: Antibacterial activity against methicillin-resistant Staphylococcus aureus NCTC10442 assessed as inhibition of bacterial growth incubated for 24 hrs by CLSI based broth dilution method; format: functional
Staphylococcus aureus [2] = test: Antibacterial activity against Staphylococcus aureus ATCC 29213 assessed as inhibition of bacterial growth incubated for 24 hrs by CLSI based broth dilution method; format: functional
Staphylococcus aureus [3] = test: Antibacterial activity against Staphylococcus aureus ATCC 29213 in C57BL/6 mouse model of bacterial keratitis assessed as log reduction in number of viable bacterial colonies in infected cornea at 50 mg/ml, TOP administered 4 times a day for 3 consecutive days; format: functional; details: time 3 day
Staphylococcus aureus [4] = test: Bactericidal activity against Staphylococcus aureus ATCC 29213 assessed as log reduction in viable bacteria at 8 times MIC measured after 8 hrs by time-killing assay; format: functional
Staphylococcus aureus [5] = test: Antibacterial activity against methicillin-resistant Staphylococcus aureus N315 assessed as inhibition of bacterial growth incubated for 24 hrs by CLSI based broth dilution method; format: functional
Escherichia coli [6] = test: Bactericidal activity against Escherichia coli ATCC 25922 assessed as log reduction in viable bacteria at 8 times MIC measured after 2 hrs by time-killing assay; format: functional
Escherichia coli [7] = test: Induction of drug resistance in Escherichia coli ATCC 25922 assessed as fold change in MIC measured after 19 passages by CLSI based broth dilution method; format: functional
Staphylococcus aureus [8] = test: Antibacterial activity against Staphylococcus aureus NCTC10442 assessed as fold increase in MIC incubated for 24 hrs in presence of 2.5 mM Ca2+ by CLSI based broth dilution method; format: functional
Escherichia coli [9] = test: Antibacterial activity against Escherichia coli ATCC 25922 assessed as fold increase in MIC incubated for 24 hrs in presence of 4.5 mM K+ by CLSI based broth dilution method; format: functional
Acinetobacter baumannii [10] = test: Antibacterial activity against Acinetobacter baumannii ATCC 17978 assessed as inhibition of bacterial growth incubated for 24 hrs by CLSI based broth dilution method; format: functional
Staphylococcus aureus [11] = test: Antibacterial activity against Staphylococcus aureus ATCC 29213 assessed as fold increase in MIC incubated for 24 hrs in presence of 140 mM Na+ by CLSI based broth dilution method; format: functional
Acinetobacter baumannii [12] = test: Antibacterial activity against Acinetobacter baumannii ATCC 17978 assessed as fold increase in MIC incubated for 24 hrs in presence of 4.5 mM K+ by CLSI based broth dilution method; format: functional
Staphylococcus aureus [13] = test: Antibacterial activity against Staphylococcus aureus NCTC10442 assessed as fold increase in MIC incubated for 24 hrs in presence of 140 mM Na+ by CLSI based broth dilution method; format: functional
Staphylococcus aureus [14] = test: Antibacterial activity against Staphylococcus aureus NCTC10442 assessed as fold increase in MIC incubated for 24 hrs in presence of 1 mM Mg2+ by CLSI based broth dilution method; format: functional
Acinetobacter baumannii [15] = test: Antibacterial activity against Acinetobacter baumannii ATCC 17978 assessed as fold increase in MIC incubated for 24 hrs in presence of 1 mM Mg2+ by CLSI based broth dilution method; format: functional
[16] = Hemolytic activity in rabbit RBC measured after 1 hrs by multimode reader assay; format: toxicity, cell-based, Oryctolagus cuniculus, Erythrocyte; details: rabbit red blood cells (erythrocytes)
Staphylococcus aureus [17] = test: Antibacterial activity against Staphylococcus aureus ATCC 29213 assessed as fold increase in MIC incubated for 24 hrs in presence of 4.5 mM K+ by CLSI based broth dilution method; format: functional
Acinetobacter baumannii [18] = test: Antibacterial activity against Acinetobacter baumannii ATCC 17978 assessed as fold increase in MIC incubated for 24 hrs in presence of 140 mM Na+ by CLSI based broth dilution method; format: functional
Escherichia coli [19] = test: Antibacterial activity against Escherichia coli ATCC 25922 assessed as fold increase in MIC incubated for 24 hrs in presence of 1 mM Mg2+ by CLSI based broth dilution method; format: functional
Escherichia coli [20] = test: Antibacterial activity against Escherichia coli ATCC 25922 assessed as fold increase in MIC incubated for 24 hrs in presence of 140 mM Na+ by CLSI based broth dilution method; format: functional
Staphylococcus aureus [21] = test: Antibacterial activity against Staphylococcus aureus NCTC10442 assessed as fold increase in MIC incubated for 24 hrs in presence of 4.5 mM K+ by CLSI based broth dilution method; format: functional
Acinetobacter baumannii [22] = test: Antibacterial activity against Acinetobacter baumannii ATCC 17978 assessed as fold increase in MIC incubated for 24 hrs in presence of 2.5 mM Ca2+ by CLSI based broth dilution method; format: functional
Pseudomonas aeruginosa = test: Antibacterial activity against Pseudomonas aeruginosa ATCC 9027 assessed as inhibition of bacterial growth incubated for 24 hrs by CLSI based broth dilution method; format: functional
Klebsiella pneumoniae [23] = test: Antibacterial activity against Klebsiella pneumoniae ATCC 14581 assessed as inhibition of bacterial growth incubated for 24 hrs by CLSI based broth dilution method; format: functional
Staphylococcus aureus [24] = test: Antibacterial activity against Staphylococcus aureus ATCC 29213 assessed as fold increase in MIC incubated for 24 hrs in presence of 1 mM Mg2+ by CLSI based broth dilution method; format: functional
Escherichia coli [25] = test: Antibacterial activity against Escherichia coli ATCC 25922 assessed as inhibition of bacterial growth incubated for 24 hrs by CLSI based broth dilution method; format: functional
Klebsiella pneumoniae [26] = test: Antibacterial activity against Klebsiella pneumoniae ATCC 10031 assessed as inhibition of bacterial growth incubated for 24 hrs by CLSI based broth dilution method; format: functional
Escherichia coli [27] = test: Antibacterial activity against Escherichia coli ATCC 25922 assessed as fold increase in MIC incubated for 24 hrs in presence of 2.5 mM Ca2+ by CLSI based broth dilution method; format: functional
Staphylococcus aureus [28] = test: Antibacterial activity against Staphylococcus aureus ATCC 29213 assessed as fold increase in MIC incubated for 24 hrs in presence of 2.5 mM Ca2+ by CLSI based broth dilution method; format: functional
Acinetobacter baumannii [29] = test: Antibacterial activity against Acinetobacter baumannii R2889 assessed as inhibition of bacterial growth incubated for 24 hrs by CLSI based broth dilution method; format: functional
[30] = Dissociation constant, pKa of compound by potentiometric titration method; format: physicochemical

| SMILES | MIC (Staphylococcus aureus [1]) [µg/mL] | MIC (Staphylococcus aureus [2]) [µg/mL] | MIC (Staphylococcus aureus [5]) [µg/mL] | MIC (Acinetobacter baumannii [10]) [µg/mL] | HC50 at 1 h [16] [µg/mL] | MIC (Pseudomonas aeruginosa) [µg/mL] | MIC (Klebsiella pneumoniae [23]) [µg/mL] | MIC (Escherichia coli [25]) [µg/mL] | MIC (Klebsiella pneumoniae [26]) [µg/mL] | MIC (Acinetobacter baumannii [29]) [µg/mL] | pKa [30] | also measured |
| --- | --- | --- | --- | --- | --- | --- | --- | --- | --- | --- | --- | --- |
| CN[C@H](CC(C)C)C(=O)N[C@H]1C(=O)N[C@@H](CC(N)=O)C(=O)N[C@H]2C(=O)N[C@H]3C(=O)N[C@H](C(=O)N[C@H](C(=O)O)c4cc(O)cc(O)c4-c4cc3ccc4O)[C@H](O)c3ccc(c(Cl)c3)Oc3cc2cc(c3O[C@@H]2O[C@H](CO)[C@@H](O)[C@H](O)[C@H]2O[C@H]2C[C@](C)(N)[C@H](O)[C@H](C)O2)Oc2ccc(cc2Cl)[C@H]1O [VANCOMYCIN] | 1.56 (≈ 1.08 µM) | 0.78 (≈ 0.538 µM) | 1.56 (≈ 1.08 µM) |  |  |  |  |  |  |  |  | log(activity) (Staphylococcus aureus [3]): 6.05; log(activity) (Staphylococcus aureus [4]): 1.22 |
| CC1(C)S[C@@H]2[C@H](NC(=O)[C@H](N)c3ccc(O)cc3)C(=O)N2[C@H]1C(=O)O [AMOXICILLIN] |  |  |  |  |  |  |  |  |  |  |  | log(activity) (Escherichia coli [6]): 1.22; fold change (FC) (Escherichia coli [7]): 16 |
| C=C[C@@](C)(/C=C/c1ccc(OCCCCN2CCCNCCNCCCNCC2)cc1)CCC=C(C)C | 0.78 (≈ 1.53 µM) | 0.78 (≈ 1.53 µM) | 0.78 (≈ 1.53 µM) | 3.12 (≈ 6.12 µM) | 62.7 | 12.5 (≈ 24.5 µM) | 3.12 (≈ 6.12 µM) | 3.12 (≈ 6.12 µM) | 1.56 (≈ 3.05 µM) | 3.12 (≈ 6.12 µM) |  | fold change (FC) (Staphylococcus aureus [8]): <2; fold change (FC) (Escherichia coli [9]): <2; fold change (FC) (Staphylococcus aureus [11]): <2; fold change (FC) (Acinetobacter baumannii [12]): <2; fold change (FC) (Staphylococcus aureus [13]): <2; fold change (FC) (Staphylococcus aureus [14]): <2; fold change (FC) (Acinetobacter baumannii [15]): <2; fold change (FC) (Staphylococcus aureus [17]): <2; fold change (FC) (Acinetobacter baumannii [18]): <2; fold change (FC) (Escherichia coli [19]): <2; fold change (FC) (Escherichia coli [20]): <2; fold change (FC) (Staphylococcus aureus [21]): <2; fold change (FC) (Acinetobacter baumannii [22]): <2; fold change (FC) (Staphylococcus aureus [24]): <2; fold change (FC) (Escherichia coli [27]): <2; fold change (FC) (Staphylococcus aureus [28]): <2 |
| C=C[C@@](C)(/C=C/c1ccc(OCCCCN2CCSCC2)cc1)CCC=C(C)C | > 50 | > 50 | > 50 |  | > 200 |  |  | > 100 |  |  | 8.41 |  |
| C=C[C@@](C)(/C=C/c1ccc(OCCCCN(C)CCCNC)cc1)CCC=C(C)C | 1.56 (≈ 3.78 µM) | 1.56 (≈ 3.78 µM) | 0.78 (≈ 1.89 µM) | 1.56 (≈ 3.78 µM) | 37.4 | 6.25 (≈ 15.1 µM) | 3.12 (≈ 7.57 µM) | 1.56 (≈ 3.78 µM) | 3.12 (≈ 7.57 µM) | 6.25 (≈ 15.1 µM) |  |  |
| C=C[C@@](C)(/C=C/c1ccc(OCCCCN)cc1)CCC=C(C)C | 1.56 (≈ 4.76 µM) | 1.56 (≈ 4.76 µM) | 0.78 (≈ 2.38 µM) |  | 65.9 |  |  | 12.5 (≈ 38.2 µM) |  |  | 9.54 |  |
